Results taken from a melting point compilation (Tetko et al.).

Row | melting point [°C] | SMILES
1 | 104 to 105 | Cn1ncc(Br)c1N
2 | 86 | Cc1nc([N+](=O)[O-])cn1C(C)C
3 | 78 | O=C(O)C(CCCc1ccccc1)c1ccccc1 (centres undefined)
4 | 85 to 88 | O=[N+]([O-])c1ccc2c(c1)OCCOCCOCCOCCOCCO2
5 | 104 | CC(C)=CCCC(C)C1=C(O)C(=O)C(C)=CC1=O (centres undefined)
6 | 238 | CCOC(=O)c1nn(-c2ccc(C)cc2)c(C)c1C(=O)C1=NOC2C(=O)N(c3ccc(Br)cc3)C(=O)C12 (centres undefined)
7 | 211 | COc1ccc(C2Nc3nc(C(F)(F)F)nn3C(N)=C2C#N)cc1 (centres undefined)
8 | 70 | OC1Cc2ccccc2C1
9 | 222 to 223 | O=C(Nc1cccc2cc(OC(=O)c3ccccc3)ccc12)c1ccccc1
10 | 130 to 131 | CC(C)(C)c1cc(C(=Nc2ccccc2)Nc2ccccc2)cc(C(C)(C)C)c1O
11 | 85 | COC(=O)C(C)N(C(=O)c1ccccc1)c1ccc(F)c(Cl)c1 (centres undefined)
12 | 11.5 | C1CCC(CCC2CCCCC2)CC1
13 | 66 | O=Cc1cc(-c2cccs2)on1
14 | 116 to 117 | NC(=S)COc1ccccc1Cl
15 | 57 to 59 | S=C=Nc1ccc2c(c1)OCO2
16 | 204 | O=C1CCC(=O)N1I
17 | -10 | ClC(Cl)C(Cl)C(Cl)Cl
18 | 138 | COc1cc2c(cc1C)C(C(=O)O)C2 (centres undefined)
19 | 27 | CCN(CC)c1nc(Cl)nc(N(CC)CC)n1
20 | 121 to 124 | COc1ccc2nc(-c3ccccc3)cc(Cl)c2c1
21 | 135 | CSc1ccccc1/N=C/c1cc(C(C)(C)C)cc(C(C)(C)C)c1O
22 | 83.5 | Clc1cccc2cc3ccccc3cc12
23 | 258 to 259 | Cc1cc(C)c(C2(C)CC(C(=NNC(N)=S)c3cc4ccccc4o3)C2)c(C)c1 (centres undefined)

Row | melting point [°C] | SMILES
24 | 200 | Cc1[nH]c2ccccc2c1CC(=O)O
25 | 29 | CC(C)(c1ccccc1)c1ccccc1
26 | 115 | COC(=O)c1ccc(CC(C#N)(Cc2ccc(C(=O)OC)cc2)c2ccc(CC(C)C)cc2)cc1
27 | 48 to 50 | O=[N+]([O-])c1cc(C(F)(F)F)ccc1N1CCCCC1
28 | 86 | Cc1cc(I)ccc1N
29 | 220 to 223 | O=C(O)Cc1n[nH]c(=O)c2ccccc12
30 | 126 to 128 | CN(C)c1ccccc1-c1ccccc1P(c1ccccc1)c1ccccc1
31 | 83 to 83.5 | O=C(CC1(O)Cc2ccccc21)c1ccccc1 (centres undefined)
32 | 200 | Sc1nccc(-c2ccco2)n1
33 | 51 | Cc1ccc([N+](=O)[O-])cc1N=C=O
34 | 233 | Nc1ncnc(Nc2ccc(Cl)cc2)n1
35 | 79 to 81 | O=C(CCl)Nc1ccc(F)cc1F
36 | 41 to 42 | Nc1ccccc1OCCN1CCOCC1
37 | 133 | CCCc1nn(-c2ccccc2)c(=O)n1C(N)=O
38 | 206 | O=C1c2ccccc2C(=O)c2cc(Br)ccc21
39 | 98 | COc1ccc(C(C)=O)cc1[N+](=O)[O-]
40 | 28 | CCCCCCCCCCCCCCCCC(=O)OCC
41 | 224 | CC(=O)Oc1c(-c2ccccc2)[nH]c2cc([N+](=O)[O-])c(/C=C/c3ccccc3)cc12
42 | 112 | O=C(O)CCc1cccc(O)c1
43 | 225 to 233 | Cc1nc2ccccc2c(C(=O)O)c1C(=O)O
44 | 216 | CC(C=CC=C(C)C=CC1=C(C)CC(O)CC1(C)C)=CC=CC=C(C)C=CC=C(C)C=CC1=C(C)CC(O)CC1(C)C (centres undefined)
45 | 57 | CC(C)(C)OC(=O)NO
46 | 8 | CCOC(=O)CCC(=O)O

Row | melting point [°C] | SMILES
47 | 151 | O=C(C1=NN(c2ccccc2)C2C(=O)N(c3ccc([N+](=O)[O-])cc3)C(=O)C12)c1ccc(Br)cc1 (centres undefined)
48 | 99 to 102 | OCc1cc(-c2ccccc2)on1
49 | 23 | C1CCCCCCCCCCCC1
50 | 109 | CCC(Br)(CC)C(=O)NC(=O)NC(C)=O
51 | 197 to 204 | NCCCC(=O)O
52 | 206 | O=S(=O)(O)c1ccc(Nc2ccccc2)cc1
53 | 44 | O=C(C=Cc1ccccc1)OCC=Cc1ccccc1
54 | 248 to 250 | O=C(O)c1cccc(C(=O)O)n1
55 | 49 | CCOC(=O)NCc1ccccc1
56 | 77 | COc1ccc(CBr)cc1C(F)(F)F
57 | 78 to 80 | COC(=O)c1ccc(CN2CCN(C(=O)OC(C)(C)C)CC2)cc1
58 | 163 | Nc1cc2c(cc1C=Cc1ccccc1)CC(c1ccccc1)N2 (centres undefined)
59 | 95 | CN1C(=O)C=CC1=O
60 | 137 to 141 | CC(C)(C)[Si](C)(C)N1C(=O)C[C@@H]1C(=O)O
61 | 112 to 114 | Cc1nc(-c2cccc(C#N)c2)cs1
62 | 75 to 77 | NC(=NO)c1ccccc1
63 | 50 | OCCCN1CCNCC1
64 | 113 | CC(=O)Oc1cc(C)c(OC(C)=O)c2ccccc12
65 | 142 | Cc1ccccc1C=C1C(=O)OC(C)(C)OC1=O
66 | 148 to 149 | Cc1ccc(S(=O)(=O)NC(=S)Nc2ccccc2)cc1
67 | 117 | NNc1cccc2ccccc12
68 | 138 | CCC(O)(CC)C1(C)CCC(C(=O)O)C(C)(C)O1 (centres undefined)
69 | 211 | S=c1sc2ccccc2n1CSc1nc2ccccc2s1

Row | melting point [°C] | SMILES
70 | -120 | FC(F)(F)C(Cl)C(F)(F)F
71 | 149 | O=C(O)c1cc(Cl)ccc1F
72 | 35 to 37 | Cc1cc(N)ccc1F
73 | 235 | c1ccc2cc(Nc3ccc(Nc4ccc5ccccc5c4)cc3)ccc2c1
74 | 215 to 220 | O=C1OS(=O)(=O)c2c(Br)c(Br)c(Br)c(Br)c21
75 | 42 | COC(=O)c1ccc(Br)c(C)c1
76 | 69 to 72 | CCOC(=O)c1cc2cc(Br)ccc2o1
77 | 174 | [O-][P+](c1ccccc1)(c1ccccc1)C1C=C(c2ccccc2)C=C(c2ccccc2)S1 (centres undefined)
78 | 248 | N#Cc1ccc(C(Cl)C(Cl)c2cccc(C(Cl)C(Cl)c3ccc(C#N)cc3[N+](=O)[O-])c2)c([N+](=O)[O-])c1 (centres undefined)
79 | 132 | CC(=O)C(=NNc1ccc(Br)cc1)C(C)=O
80 | 136 to 138 | Nc1nsc(-c2ccccc2)n1
81 | 95 | N#CCc1ccc(-c2ccccc2)cc1
82 | 54 | NC(CO)CO
83 | 107 to 111 | Cn1ccnc1CO
84 | 237 to 240 | Sc1nnc(-c2ccco2)n1-c1ccc2c(c1)OCCO2
85 | 62 | CC(=O)c1ccc(Cl)c(Cl)c1Cl
86 | 96 | Cc1ccc(NO)cc1
87 | 162 | COC(=O)CCC(C)C1CCC2C3C(O)C(O)C4CC(O)CCC4(C)C3CC(O)C12C (centres undefined)
88 | 177 | Cn1c(=O)c2c(ncn2CN2CCOCC2)n(C)c1=O
89 | 39 | OCCn1ccnc1
90 | 96 to 97 | CCOc1nc2ccccc2c(=O)n1Cc1ccccc1
91 | 132 to 134 | CC(=O)/C=C(\C)c1ccc(-c2ccccc2)cc1
92 | 182 | NC(=O)c1cc(Br)cc(Br)c1

Row | melting point [°C] | SMILES
93 | 270 | NC(=O)/C(=N\Nc1cc(Cl)ccc1Cl)c1nc2ccccc2s1
94 | 103 | ClCc1cc(Br)cc2c1OCOC2
95 | 138 to 140 | COC(=O)c1cc2ccccc2c(OC(=O)c2ccccc2C)c1C(=O)OC
96 | 152 | CN1CC(C(=O)O)CC1=O (centres undefined)
97 | 180 | Oc1ccc(Br)cn1
98 | 77 to 79 | N#Cc1cccc2c1-c1ccccc1C2
99 | 298 to 300 | N#C/C(=C/c1ccc(Cl)cc1Cl)c1nc2ccccc2c(=O)[nH]1
100 | 94.5 | O=Cc1cc(F)ccc1[N+](=O)[O-]
101 | 181 | Nn1c(Cc2ccc(Cl)cc2)n[nH]c1=O
102 | 268 | NC(=O)c1nccnc1C(N)=O
103 | 90.5 to 91.5 | Cc1nccn1-c1ccc(CN)cc1
104 | 167 to 169 | Cc1oc(C)c(S(=O)(=O)NCc2cccs2)c1C(=O)O
105 | -1 | COC(=O)c1cc(C)ccc1O
106 | 37 to 39 | COc1ccccc1C(C)O (racemic)
107 | 140 | CC(C)(O)CCSc1ccc(S(N)(=O)=O)cc1
108 | 68 to 72 | CCOc1c(NCc2ccccc2)c(=O)c1=O
109 | 50 to 51 | OC1CCSCC1
110 | 189 | Cc1ccc(C)c(NN=C2C(=O)NN=C2C(F)(F)F)c1
111 | 139 | CC1(C)CC(=O)C2=C(C1)Nc1c(ccc3ccccc13)C2c1ccc(Cl)cc1 (centres undefined)

Row | SMILES | melting point [°C]
112 | CCCCC(CC)COC(=O)OOC(C)(C)C (centres undefined) | -50
113 | C=C(C)CN(CC)c1c([N+](=O)[O-])cc(C(F)(F)F)cc1[N+](=O)[O-] | 55.5
114 | Cc1nnc2n1-c1sc(Br)cc1C(c1ccccc1Cl)=NC2 | 213
115 | CN(c1c(F)c(F)c(F)c(F)c1F)[N+](=O)[O-] | 39.5
116 | COC(=O)C=Cc1ccc(Cl)cc1 | 76
117 | COc1cc(C=C(C)[N+](=O)[O-])cc(OC)c1 | 87 to 89
118 | CCC1(C2=CCCCCC2)C(=O)NC(=O)NC1=O | 174
119 | Brc1ccc2c(c1)Oc1ccccc1O2 | 90
120 | CCCCOC(=O)c1ccccc1C(=O)OCc1ccccc1 | 230
121 | N#Cc1cc(I)c(O)c(I)c1 | 212
122 | CCC(=Cc1ccccc1)[N+](=O)[O-] | 90.5
123 | CCN1C(=O)CC(=O)N(CC)C1=S | 106 to 109
124 | CCOC(=O)C1(c2ccccc2)CCN(CCc2ccc(N)cc2)CC1 | 83
125 | ClCc1ccc2c(c1)OCO2 | 20.5
126 | Nc1ccc(Oc2ccc(N)cc2)cc1 | 191
127 | Fc1ccc(CBr)c(Cl)c1 | 37
128 | C=C(C)C1Cc2c(ccc3c2OC2COc4cc(OC)c(OC)cc4C2C3=O)O1 (centres undefined) | 176
129 | CN1C2CCC1CC(O)C2 (centres undefined) | 109
